From PMC9515952, “Tentative exploration of pharmacodynamic substances: Pharmacological effects, chemical compositions, and multi-components pharmacokinetic characteristics of ESZWD in CHF-HKYd rats” (Frontiers in Cardiovascular Medicine, 2022)
Read-outs that look alike come from different tables or passages of the source. Values belong to the compound of their own block, whether it stands above or below them.

Assays:
TNF-α = assay: Serum TNF-α by ELISA in CHF-HKYd rats; assay type: in vivo, rat; settings: benazepril 0.5 mg/kg, gavage 4 weeks
Protocol: (§1) SPF SD male rats were anesthetized by intraperitoneal injection of 25% urethane (1,000 mg/kg). Cut off the skin tissue for about 1 cm, blunt away from bilateral neck muscles, separate and excise the bilateral thyroid glands, and the parathyroid glands were retained. The mixture of noradrenaline and normal saline (1:4,000) was used to stop intraoperative bleeding during the operation, the muscle and skin were sutured and 0.1% calcium gluconate solution was given postoperatively. On the 10th day after thyroidectomy, the rats were intraperitoneally injected with 0.02% doxorubicin hydrochloride (1 mL/100 g), twice a week for 3 weeks.
(§2) All rats were randomly divided into control group, model group, ESZWD low-dose (3.96 g/kg), medium-dose (7.92 g/kg), high-dose (15.84 g/kg) groups, and positive control group (benazepril, 0.5 mg/kg), with six rats in each group. The CHF-HKYd was established after 1 week of feeding. […] The state of rats was observed and the urine volume at 24 h was measured. The structure and function of rat heart were evaluated by doppler ultrasonography. Serum biomarkers including myocardial injury indicators NT-proBNP, angiotensinII (AngII), aldosterone (ALD), reactive oxygen species (ROS), superoxide dismutase (SOD), malondialdehyde (MDA), and tumor necrosis factor α (TNF-α) and interleukin 6 (IL-6) were detected by ELISA.

ROS = assay: Serum reactive oxygen species (ROS) by ELISA in CHF-HKYd rats; assay type: in vivo, rat; settings: benazepril 0.5 mg/kg, gavage 4 weeks
Protocol: as §1, §2

ALD = assay: Serum aldosterone (ALD) by ELISA in CHF-HKYd rats; assay type: in vivo, rat; settings: benazepril 0.5 mg/kg, gavage 4 weeks
Protocol: as §1, §2

AngII = assay: Serum angiotensinII (AngII) by ELISA in CHF-HKYd rats; assay type: in vivo, rat; settings: benazepril 0.5 mg/kg, gavage 4 weeks
Protocol: as §1, §2

IL-6 = assay: Serum IL-6 by ELISA in CHF-HKYd rats; assay type: in vivo, rat; settings: benazepril 0.5 mg/kg, gavage 4 weeks
Protocol: as §1, §2

NT-proBNP = assay: Serum NT-proBNP by ELISA in CHF-HKYd rats; assay type: in vivo, rat; settings: benazepril 0.5 mg/kg, gavage 4 weeks
Protocol: as §1
The general state of rats was observed: the basic criteria for the symptoms of HKYd were dark purple coating on the tongue, asthma, edema, fear of cold, emaciation, loose stools, sleepiness, hypotrichosis, etc. The urine volume of rats was measured: 1 week after the last injection, 24 h urine volume of rats in the normal and model group were collected in the metabolic cage, and the urine samples were frozen at −80°C. Evaluation of cardiac function in rats by Doppler echocardiography: After urine collection, the rats were anesthetized and fixed in the supine position. The precardiac area of the rats was depilated and the coupling agent was applied, a frequency of 12 MHz. […] The contents of serum NT-proBNP, T3, and T4 were detected by ELISA. […]

MDA = assay: Serum malondialdehyde (MDA) by ELISA in CHF-HKYd rats; assay type: in vivo, rat; settings: benazepril 0.5 mg/kg, gavage 4 weeks
Protocol: as §1, §2

CHF-HKYd rats = assay: Doppler echocardiography of cardiac function in CHF-HKYd rats; assay type: in vivo, rat; settings: benazepril 0.5 mg/kg by gavage for 4 weeks (positive control)
Protocol: as §1
The general state of rats was observed: the basic criteria for the symptoms of HKYd were dark purple coating on the tongue, asthma, edema, fear of cold, emaciation, loose stools, sleepiness, hypotrichosis, etc. The urine volume of rats was measured: 1 week after the last injection, 24 h urine volume of rats in the normal and model group were collected in the metabolic cage, and the urine samples were frozen at −80°C. Evaluation of cardiac function in rats by Doppler echocardiography: After urine collection, the rats were anesthetized and fixed in the supine position. The precardiac area of the rats was depilated and the coupling agent was applied, a frequency of 12 MHz. M-mode ultrasound and pulsed Doppler ultrasound were used to detect diastolic interventricular septum (IVSD), left ventricular internal diastolic diameter (LVIDd), left ventricular posterior wall diastolic diameter (LVPWd), systolic interventricular septum (IVSs) and left ventricular internal systolic diameter (LVIDs), left ventricular posterior wall systolic diameter (LVPWs), stroke volume (SV), left ventricular ejection fraction (LVEF), left ventricular short-axis systolic fraction (FS), and the ratio of peak flow velocity between early and late mitral valve diastole (E/A) through the left ventricular macropinacoid of left sternal bone and four-chamber view. Neuroendocrine factor detection: After the echocardiography, 1 mL of blood was taken from the canthus of rats in each group, blood was placed in the water at 37°C for 1.5 h, centrifuged to obtain serum (3,000 rpm, 10 min), frozen at −80°C. The contents of serum NT-proBNP, T3, and T4 were detected by ELISA.
(§3) All rats were randomly divided into control group, model group, ESZWD low-dose (3.96 g/kg), medium-dose (7.92 g/kg), high-dose (15.84 g/kg) groups, and positive control group (benazepril, 0.5 mg/kg), with six rats in each group. The CHF-HKYd was established after 1 week of feeding. ESZWD and benazepril were administered by gavage separately for 4 weeks after successful modeling, except for the control group. Blood was collected for 5, 10, 20, 30, 45 min, 1, 2, 4, 6, 8, 12, and 24 h, standing for 2 h and centrifuged at 4°C, 3,500 rpm for 10 min, the supernatant was retained. The state of rats was observed and the urine volume at 24 h was measured. The structure and function of rat heart were evaluated by doppler ultrasonography. Serum biomarkers including myocardial injury indicators NT-proBNP, angiotensinII (AngII), aldosterone (ALD), reactive oxygen species (ROS), superoxide dismutase (SOD), malondialdehyde (MDA), and tumor necrosis factor α (TNF-α) and interleukin 6 (IL-6) were detected by ELISA.

[1] = rat; for Stability, Room temperature, Mean ± SD: 4 h; for Stability, Automatic sampler, Mean ± SD: 8 h; for Stability, Long-term freeze, Mean ± SD: 7 d
Protocol: The stability of all probe drugs was evaluated by LQC and HQC samples under different experimental conditions, including short-term stability [4 h at room temperature (25°C), 8 h in the automatic sampler, and three freeze and thaw cycles, respectively] and long-term stability (7 d at −80°C).

[2] = Pharmacokinetics of four components of ESZWD in CHF-HKYd rat serum by UPLC-MS/MS; assay type: in vivo; parameters: AUC(0-t) / AUC(0−t) / AUC(0-inf) / AUC(0−∞): concentration or dose not given beside the values; settings: CHF-HKYd rat serum after oral administration of ESZWD, mean ± SD, n = 6
Protocol: as §3
Chromatographic analysis was performed using ACQUITY UPLC BEH C18 column (2.1 × 50 mm, […]), the mobile phase was acetonitrile (A) 0.1% formic acid water (B), the flow rate was set as 0.2 mL·min^−1, the column temperature was 35°C, the injection volume was 2 μL, and the gradient conditions were as follows: 0–8 min: 6–11%A, 8–23 min: 11–19%A, 23–45 min: 19–38%A, 45–55 min: 38–47%A, 55–55.1 min: 47–52%A, 55.1–65 min: 52–90%A, 65–66 min: 90–6%A of UPLC-Q-TOF/MS analysis and 0–3 min: 8–10%A, 3–3.5 min: 10–70% A, 3.5–5: 70–80%A, 5–5.1 min: 80–8% A, 5.1–6 min: 8% A of UPLC-MS/MS.
Mass spectrometric detection of UPLC-MS/MS analysis was carried out on electrospray ionization (ESI) ion source, multiple reaction monitoring (MRM) mode, ion spray voltage of 5,500 V, the curtain gas and collision gas were 40 and 9 kPa, respectively, declustering potential (DP) and collision voltage (CE) are shown in Table 1.

Structure (SMILES): CCOC(=O)[C@H](CCc1ccccc1)N[C@H]1CCc2ccccc2N(CC(=O)O)C1=O [Benazepril, benazepril]
serum TNF-α level vs model group (TNF-α): significantly reduced
serum ROS level vs model group (ROS): significantly reduce
serum ALD level vs model group (ALD): significantly reduced
serum AngII level vs model group (AngII): significantly reduced
serum IL-6 level vs model group (IL-6): significantly reduced
serum NT-proBNP level vs model group (NT-proBNP): significantly reduced
serum MDA level vs model group (MDA): significantly reduce
E/A (CHF-HKYd rats): 1.794 ± 0.28
FS (CHF-HKYd rats): 60.31 ± 8.10 %
IVSd (CHF-HKYd rats): 1.800 ± 0.62 mm
IVSs (CHF-HKYd rats): 3.425 ± 0.88 mm
LVEF (CHF-HKYd rats): 92.30 ± 4.09 %
LVIDd (CHF-HKYd rats): 5.950 ± 1.28 mm
LVIDs (CHF-HKYd rats): 2.350 ± 0.72 mm
LVPWd (CHF-HKYd rats): 1.900 ± 0.67 mm
LVPWs (CHF-HKYd rats): 3.525 ± 0.79 mm
SV (CHF-HKYd rats): 0.4950 ± 0.25 mL

Stability, Multigelation, Mean ± SD ([1]; 1 ng/mL): 1.012 ± 0.07 ng/mL
Stability, Multigelation, Mean ± SD ([1]; 10 ng/mL): 10.41 ± 0.73 ng/mL
Stability, Multigelation, Mean ± SD ([1]; 150 ng/mL): 162.2 ± 9.25 ng/mL
Stability, Room temperature, Mean ± SD ([1]; 1 ng/mL): 1.046 ± 0.06 ng/mL
Stability, Room temperature, Mean ± SD ([1]; 10 ng/mL): 10.18 ± 0.72 ng/mL
Stability, Room temperature, Mean ± SD ([1]; 150 ng/mL): 160.7 ± 5.68 ng/mL
Stability, Automatic sampler, Mean ± SD ([1]; 1 ng/mL): 1.053 ± 0.02 ng/mL
Stability, Automatic sampler, Mean ± SD ([1]; 10 ng/mL): 10.51 ± 0.98 ng/mL
Stability, Automatic sampler, Mean ± SD ([1]; 150 ng/mL): 160.2 ± 6.15 ng/mL
Stability, Long-term freeze, Mean ± SD ([1]; 1 ng/mL): 1.010 ± 0.08 ng/mL
Stability, Long-term freeze, Mean ± SD ([1]; 10 ng/mL): 10.19 ± 0.97 ng/mL
Stability, Long-term freeze, Mean ± SD ([1]; 150 ng/mL): 149.6 ± 11.70 ng/mL
V/F [2]: 41.20 ± 0.83 L/kg
AUC(0-inf) ([2]; Sprague-Dawley (SD)): 2260 ± 179 ng·h/mL
AUC(0-t) ([2]; Sprague-Dawley (SD)): 2240 ± 178 ng·h/mL
half-life ([2]; Sprague-Dawley (SD)): 3.22 ± 0.34 h
CL/F ([2]; Sprague-Dawley (SD), read-out: CL/F (converted)): 148 mL/min/kg
Cmax ([2]; Sprague-Dawley (SD), read-out: Cmax): 198 ± 27.7 ng/mL
Tmax ([2]; Sprague-Dawley (SD), read-out: Tmax): 6 ± 2.54 h
half-life ([2]; Sprague-Dawley): ~3 h
Structure (SMILES): C[C@@]12C[C@@]3(O)O[C@@H](O1)[C@]1(COC(=O)c4ccccc4)[C@H]3C[C@@]12O[C@@H]1O[C@H](CO)[C@@H](O)[C@H](O)[C@H]1O [Paeoniflorin]
